Laboratory results as given in patent US9476099B2 (TRUSTEES OF DARTMOUTH COLLEGE, priority 2012, dated 2016).

Test system: NT2/D1-R1 control and DNMT3B knockdown cells
Test: Genome-wide expression analysis with PAM clusters, control and DNMT3B knockdown cells (Tables 8-14)
Details: sh-3B + aza, NT2/D1-R1 DNMT3B knockdown, decitabine 10 nM 3 days

## Nc1ncn([C@H]2C[C@H](O)[C@@H](CO)O2)c(=O)n1 [aza]
  ACSS2 (NM_0010765) gene expression, Mean: 406.693
  ADCK1 (NM_020421) gene expression, Mean: 305.179
  ADCY1 (NM_021116) gene expression, Mean: 138.949
  AGAP1 (NM_014914) gene expression, Mean: 225.72
  AK056312 gene expression, Mean: 471.555
  ANKRD9 (NM_152326) gene expression, Mean: 896.077
  APEH (NM_001640) gene expression, Mean: 1236.16
  APP (NM_201414) gene expression, Mean: 393.758
  C1orf115 (NM_024709) gene expression, Mean: 380.885
  C2orf34 (NM_024766) gene expression, Mean: 286.591
  C7orf47 (NM_145030) gene expression, Mean: 749.147
  C16orf35 (NM_0010394) gene expression, Mean: 464.104
  CA4 (NM_000717) gene expression, Mean: 1313.05
  CACNA2D2 (NM_006030) gene expression, Mean: 398.095
  CD24 (NM_013230) gene expression, Mean: 4095.34
  CD248 (NM_020404) gene expression, Mean: 166.587
  CDC42EP5 (NM_145057) gene expression, Mean: 232.63
  CDH3 (NM_001793) gene expression, Mean: 1031.14
  CEBPB (NM_005194) gene expression, Mean: 886.982
  CHST13 (NM_152889) gene expression, Mean: 184.993
  CLASP1 (NM_015282) gene expression, Mean: 448.757
  CLIP2 (NM_032421) gene expression, Mean: 216.273
  COMMD1 (NM_152516) gene expression, Mean: 327.95
  COMMD7 (NM_0010993) gene expression, Mean: 1236.98
  CRMP1 (NM_0010148) gene expression, Mean: 628.721
  CTNNBIP1 (NM_020248) gene expression, Mean: 181.632
  CXCL16 (NM_022059) gene expression, Mean: 276.818
  CYP2F1 (NM_000774) gene expression, Mean: 134.435
  CYP2S1 (NM_030622) gene expression, Mean: 1003.81
  DBC1 (NM_014618) gene expression, Mean: 313.757
  DDIT4 (NM_019058) gene expression, Mean: 558.55
  DGKQ (NM_001347) gene expression, Mean: 236.075
  DLL3 (NM_016941) gene expression, Mean: 150.963
  DPYSL3 (NM_001387) gene expression, Mean: 841.778
  DYM (NM_017653) gene expression, Mean: 332.811
  DYSF (NM_003494) gene expression, Mean: 345.371
  EPHA1 (NM_005232) gene expression, Mean: 886.512
  EVI5L (NM_145245) gene expression, Mean: 248.688
  EVL (NM_016337) gene expression, Mean: 840.767
  EXTL3 (NM_001440) gene expression, Mean: 869.111
  F11R (NM_016946) gene expression, Mean: 218.843
  FAF1 (NM_007051) gene expression, Mean: 266.415
  FAM125A (NM_138401) gene expression, Mean: 558.795
  FAM127A (NM_0010781) gene expression, Mean: 1016.07
  FCGBP (NM_003890) gene expression, Mean: 279.685
  FDFT1 (NM_004462) gene expression, Mean: 705.216
  FIGNL2 (NM_0010136) gene expression, Mean: 289.159
  FLNB (NM_001457) gene expression, Mean: 960.275
  FOXN3 (NM_005197) gene expression, Mean: 518.292
  GAL (NM_015973) gene expression, Mean: 1768.85
  GAS7 (NM_201433) gene expression, Mean: 308.927
  GLG1 (NM_012201) gene expression, Mean: 913.909
  GRAMD1A (NM_020895) gene expression, Mean: 607.142
  GTF3C1 (NM_001520) gene expression, Mean: 626.338
  HCFC1R1 (NM_0010020) gene expression, Mean: 798.561
  HESX1 (NM_003865) gene expression, Mean: 379.045
  HINT2 (NM_032593) gene expression, Mean: 706.883
  HIST3H2A (NM_033445) gene expression, Mean: 282.379
  HIST4H4 (NM_003541) gene expression, Mean: 314.561
  HK1 (NM_033500) gene expression, Mean: 4205.36
  IDH1 (NM_005896) gene expression, Mean: 1445.11
  IL21R (NM_181078) gene expression, Mean: 161.219
  JPH3 (NM_020655) gene expression, Mean: 214.843
  KIF1A (NM_004321) gene expression, Mean: 150.02
  KIF1B (NM_015074) gene expression, Mean: 393.388
  LDB2 (NM_001290) gene expression, Mean: 259.706
  LDOC1 (NM_012317) gene expression, Mean: 881.126
  LHFPL4 (NM_198560) gene expression, Mean: 515.175
  LONP1 (NM_004793) gene expression, Mean: 1192.71
  LPCAT3 (NM_005768) gene expression, Mean: 456.787
  LRBA (NM_006726) gene expression, Mean: 267.501
  LRRC33 (NM_198565) gene expression, Mean: 257.521
  MAPK3 (NM_0010400) gene expression, Mean: 447.115
  MAPKAP1 (NM_0010066) gene expression, Mean: 274.663
  MED30 (NM_080651) gene expression, Mean: 707.11
  MID1IP1 (NM_021242) gene expression, Mean: 1496.95
  MKRN1 (NM_013446) gene expression, Mean: 3678.37
  MSRB2 (NM_012228) gene expression, Mean: 698.39
  MYO5C (NM_018728) gene expression, Mean: 203.184
  NANOG (NM_024865) gene expression, Mean: 1405.64
  NCOR2 (NM_006312) gene expression, Mean: 1205.94
  NDUFS4 (NM_002495) gene expression, Mean: 375.498
  NFE2L3 (NM_004289) gene expression, Mean: 395.959
  NGFRAP1 (NM_206917) gene expression, Mean: 1522.67
  NKX3-2 (NM_001189) gene expression, Mean: 358.543
  NM_014745 gene expression, Mean: 246.953
  NPAS1 (NM_002517) gene expression, Mean: 227.998
  NPTX2 (NM_002523) gene expression, Mean: 279.223
  ODZ3 (NM_0010804) gene expression, Mean: 220.124
  P4HB (NM_000918) gene expression, Mean: 2039.07
  PACSIN1 (NM_020804) gene expression, Mean: 268.257
  PCDH19 (NM_020766) gene expression, Mean: 187.553
  PCK2 (NM_0010180) gene expression, Mean: 126.174
  PDZD4 (NM_032512) gene expression, Mean: 283.495
  PEMT (NM_148172) gene expression, Mean: 1036.99
  PEX14 (NM_004565) gene expression, Mean: 423.992
  PGM1 (NM_002633) gene expression, Mean: 3256.12
  PHC1 (NM_004426) gene expression, Mean: 2226.1
  PIM2 (NM_006875) gene expression, Mean: 2475.84
  PITPNC1 (NM_181671) gene expression, Mean: 287.618
  PNKP (NM_007254) gene expression, Mean: 570.846
  PPAP2A (NM_176895) gene expression, Mean: 646.273
  PPP1R1B (NM_181505) gene expression, Mean: 588.401
  PQLC3 (NM_152391) gene expression, Mean: 307.634
  PRSS8 (NM_002773) gene expression, Mean: 925.924
  PSAT1 (NM_021154) gene expression, Mean: 2370.22
  PTOV1 (NM_017432) gene expression, Mean: 1244.12
  PTPLA (NM_014241) gene expression, Mean: 295.309
  RAB3IP (NM_175624) gene expression, Mean: 976.727
  RALY (NM_007367) gene expression, Mean: 1409.6
  RASIP1 (NM_017805) gene expression, Mean: 236.587
  RASL11B (NM_023940) gene expression, Mean: 570.022
  RCN2 (NM_002902) gene expression, Mean: 957.657
  REEP6 (NM_138393) gene expression, Mean: 581.805
  RNF130 (NM_018434) gene expression, Mean: 258.36
  ROD1 (NM_005156) gene expression, Mean: 1065.57
  RPS6KA2 (NM_0010069) gene expression, Mean: 170.158
  SAT1 (NM_002970) gene expression, Mean: 2411.02
  SCARB1 (NM_005505) gene expression, Mean: 698.95
  SCNN1A (NM_001038) gene expression, Mean: 2384.6
  SEMA4B (NM_198925) gene expression, Mean: 455.134
  SEMA4D (NM_006378) gene expression, Mean: 404.578
  SEMA6B (NM_032108) gene expression, Mean: 327.203
  SH2B3 (NM_005475) gene expression, Mean: 459.878
  SLC3A2 (NM_0010132) gene expression, Mean: 701.201
  SLC8A2 (NM_015063) gene expression, Mean: 221.546
  SLC16A10 (NM_018593) gene expression, Mean: 222.7
  SLC22A23 (NM_021945) gene expression, Mean: 371.628
  SND1 (NM_014390) gene expression, Mean: 806.495
  SOX2 (NM_003106) gene expression, Mean: 507.636
  SPRY1 (NM_005841) gene expression, Mean: 278.849
  SPSB2 (NM_032641) gene expression, Mean: 738.293
  SRPX (NM_006307) gene expression, Mean: 221.585
  SURF6 (NM_006753) gene expression, Mean: 1956.16
  TBCD (NM_005993) gene expression, Mean: 565.581
  TCEA2 (NM_198723) gene expression, Mean: 471.659
  TCF7L1 (NM_031283) gene expression, Mean: 182.485
  TIMP4 (NM_003256) gene expression, Mean: 657.953
  TMC6 (NM_007267) gene expression, Mean: 426.897
  TMEM145 (NM_173633) gene expression, Mean: 204.077
  TPST2 (NM_0010085) gene expression, Mean: 683.535
  TRAPPC9 (NM_031466) gene expression, Mean: 145.068
  TSPAN9 (NM_006675) gene expression, Mean: 1493.67
  TUBB4 (NM_006087) gene expression, Mean: 455.752
  UBE2E2 (NM_152653) gene expression, Mean: 521.892
  UNC84B (NM_015374) gene expression, Mean: 307.131
  VCX2 (NM_016378) gene expression, Mean: 178.538
  VCX3A (NM_016379) gene expression, Mean: 405.641
  VCX3B (NM_0010018) gene expression, Mean: 466.812
  VSNL1 (NM_003385) gene expression, Mean: 462.603
  WDR8 (NM_017818) gene expression, Mean: 819.149
  XBP1 (NM_0010795) gene expression, Mean: 860.839
  XM_373896 gene expression, Mean: 451.855
  XM_926633 gene expression, Mean: 6671.37
  XM_932919 gene expression, Mean: 278.004
  XM_933796 gene expression, Mean: 430.873
  XM_943677 gene expression, Mean: 268.065
  ZBTB46 (NM_025224) gene expression, Mean: 246.643
  ZSWIM4 (NM_023072) gene expression, Mean: 558.806
First HIST1H2BK entry (r906)
  HIST1H2BK (NM_080593) gene expression, Mean: 1161.66
First TRPC4AP entry (r880)
  TRPC4AP (NM_015638) gene expression, Mean: 1093.15
Second HIST1H2BK entry (r952)
  HIST1H2BK (NM_080593) gene expression, Mean: 355.319
Second TRPC4AP entry (r892)
  TRPC4AP (NM_015638) gene expression, Mean: 1137.74
